Test results as given in ChEMBL document CHEMBL1201862, “PubChem BioAssay data set” (2004).
The source made the active and inactive calls.

Experiments:
[1] = target: T1, Ubiquitin-conjugating enzyme E2 N (Homo sapiens, UniProt P61088); assay type: functional;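 note: Dose-response confirmation in a TR-FRET assay detecting UBC13-driven polyubiquitin chain formation, inhibition measured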
T1 sequence (P61088 whole entry): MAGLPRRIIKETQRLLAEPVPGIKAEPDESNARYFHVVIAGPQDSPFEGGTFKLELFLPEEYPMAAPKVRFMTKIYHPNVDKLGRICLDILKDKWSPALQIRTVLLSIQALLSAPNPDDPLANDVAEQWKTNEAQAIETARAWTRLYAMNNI

[2] = decrease of insulin promoter-GFP reporter – imaging, high-content screening, mouse beta cells (AID 1628); assay type: functional; settings: MIN6
[3] = tested on: INS1; assay: INS-1E survival protection against cytokine death – cell-based, luminescence, retest, dose response (AID 449756); assay type: functional; settings: Rattus norvegicus;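 note: cell death triggered by IL-1 beta plus TNF-alpha plus IFN-gamma mixture; protective hits raise ATP signal compared with cytokine alone wells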
[4] = target: T2, Replicative DNA helicase DnaB (Mycobacterium tuberculosis, UniProt P9WMR3); assay: DnaB intein splicing inhibitors, dose response, biochemical, cell-free fluorescence (AID 449749); assay type: functional
T2 sequence (P9WMR3 whole entry): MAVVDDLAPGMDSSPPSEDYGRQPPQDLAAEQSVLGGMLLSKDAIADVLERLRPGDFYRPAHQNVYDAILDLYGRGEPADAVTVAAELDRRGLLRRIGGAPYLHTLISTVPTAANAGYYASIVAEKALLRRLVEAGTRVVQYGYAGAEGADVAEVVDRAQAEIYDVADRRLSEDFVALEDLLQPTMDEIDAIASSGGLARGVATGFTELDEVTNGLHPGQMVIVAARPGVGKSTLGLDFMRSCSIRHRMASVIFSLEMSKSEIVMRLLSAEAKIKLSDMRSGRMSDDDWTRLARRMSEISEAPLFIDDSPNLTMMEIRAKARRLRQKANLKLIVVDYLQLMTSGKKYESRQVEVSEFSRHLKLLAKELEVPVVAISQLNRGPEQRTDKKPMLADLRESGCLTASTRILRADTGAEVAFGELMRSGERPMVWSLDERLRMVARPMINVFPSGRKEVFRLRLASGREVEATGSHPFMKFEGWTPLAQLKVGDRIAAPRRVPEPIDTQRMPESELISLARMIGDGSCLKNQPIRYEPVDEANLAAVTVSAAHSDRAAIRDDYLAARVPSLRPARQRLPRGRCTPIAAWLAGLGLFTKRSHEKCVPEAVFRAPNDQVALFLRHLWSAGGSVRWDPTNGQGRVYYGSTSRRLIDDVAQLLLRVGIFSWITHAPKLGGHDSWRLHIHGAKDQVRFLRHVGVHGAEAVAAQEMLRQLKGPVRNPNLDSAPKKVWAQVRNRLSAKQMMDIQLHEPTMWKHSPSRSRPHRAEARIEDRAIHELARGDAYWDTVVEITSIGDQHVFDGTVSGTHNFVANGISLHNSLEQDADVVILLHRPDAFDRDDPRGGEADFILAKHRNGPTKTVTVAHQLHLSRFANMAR

[5] = target: T3, Protein RecA (Mycobacterium tuberculosis, UniProt P9WHJ3); assay: Fluorescence Cell-Free Homogeneous Dose Retest to Identify Inhibitors of RecA-Intein Splicing Activity. [Related pubchem assays (depositor defined):AID2097, AID2223, AID489010, AID492950]; assay type: functional
T3 sequence (P9WHJ3 whole entry): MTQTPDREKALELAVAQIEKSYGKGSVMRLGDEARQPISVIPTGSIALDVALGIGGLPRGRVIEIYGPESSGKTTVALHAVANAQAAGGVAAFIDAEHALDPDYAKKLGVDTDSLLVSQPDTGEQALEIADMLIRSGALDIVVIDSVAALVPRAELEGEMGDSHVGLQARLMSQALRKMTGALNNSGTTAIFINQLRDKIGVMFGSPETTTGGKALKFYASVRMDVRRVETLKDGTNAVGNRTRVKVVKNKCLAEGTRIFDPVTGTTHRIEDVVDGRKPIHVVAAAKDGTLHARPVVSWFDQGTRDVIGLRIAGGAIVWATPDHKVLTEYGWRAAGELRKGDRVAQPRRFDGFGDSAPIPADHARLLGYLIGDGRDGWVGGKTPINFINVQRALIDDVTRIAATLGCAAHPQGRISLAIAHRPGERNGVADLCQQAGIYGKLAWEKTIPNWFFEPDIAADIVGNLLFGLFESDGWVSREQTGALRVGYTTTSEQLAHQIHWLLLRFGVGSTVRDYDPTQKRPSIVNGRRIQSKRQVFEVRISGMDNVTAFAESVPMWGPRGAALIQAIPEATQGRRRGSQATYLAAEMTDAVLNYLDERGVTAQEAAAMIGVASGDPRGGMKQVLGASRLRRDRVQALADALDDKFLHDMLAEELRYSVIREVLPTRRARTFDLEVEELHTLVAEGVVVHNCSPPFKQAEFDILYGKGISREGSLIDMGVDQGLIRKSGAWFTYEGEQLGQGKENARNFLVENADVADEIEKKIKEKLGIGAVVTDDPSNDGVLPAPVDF

[6] = MIN6 cell viability loss – mouse insulinoma, cytotoxicity control, dose response (AID 2122); assay type: functional;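 note: confirmatory high-throughput counterscreen run to flag cytotoxic compounds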
[7] = target: T4, Cytochrome P450 2C9 (Homo sapiens, UniProt P11712)
T4 sequence (P11712 whole entry): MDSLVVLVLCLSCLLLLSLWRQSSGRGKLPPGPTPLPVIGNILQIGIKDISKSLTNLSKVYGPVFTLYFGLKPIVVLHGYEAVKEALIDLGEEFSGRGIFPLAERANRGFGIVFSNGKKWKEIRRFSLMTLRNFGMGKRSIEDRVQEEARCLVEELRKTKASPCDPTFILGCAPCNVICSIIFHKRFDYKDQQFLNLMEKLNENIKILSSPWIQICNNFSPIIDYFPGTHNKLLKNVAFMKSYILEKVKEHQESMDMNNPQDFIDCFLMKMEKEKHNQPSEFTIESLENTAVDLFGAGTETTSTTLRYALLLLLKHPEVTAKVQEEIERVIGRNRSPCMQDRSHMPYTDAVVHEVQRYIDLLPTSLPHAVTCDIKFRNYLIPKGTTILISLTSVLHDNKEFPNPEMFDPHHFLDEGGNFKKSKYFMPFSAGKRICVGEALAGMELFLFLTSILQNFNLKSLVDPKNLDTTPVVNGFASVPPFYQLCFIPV

[8] = target: Cytochrome P450 3A4 (Homo sapiens, UniProt P08684);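 note: CYP3A4 tested as one member of a cytochrome P450 panel screen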
Sequence of Cytochrome P450 3A4 (P08684 whole entry): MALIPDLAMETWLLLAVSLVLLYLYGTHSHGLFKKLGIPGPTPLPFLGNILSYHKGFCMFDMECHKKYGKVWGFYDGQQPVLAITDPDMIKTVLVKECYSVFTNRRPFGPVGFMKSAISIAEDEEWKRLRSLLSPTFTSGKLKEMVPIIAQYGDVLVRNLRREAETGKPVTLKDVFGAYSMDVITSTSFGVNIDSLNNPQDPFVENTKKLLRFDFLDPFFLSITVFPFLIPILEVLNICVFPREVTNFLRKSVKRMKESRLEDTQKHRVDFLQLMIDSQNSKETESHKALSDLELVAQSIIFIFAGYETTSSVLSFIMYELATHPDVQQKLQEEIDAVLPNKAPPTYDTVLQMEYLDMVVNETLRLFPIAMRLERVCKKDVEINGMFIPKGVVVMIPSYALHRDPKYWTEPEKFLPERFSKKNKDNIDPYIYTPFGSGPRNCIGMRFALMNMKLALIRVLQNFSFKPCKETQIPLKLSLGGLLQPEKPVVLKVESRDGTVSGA

[9] = target: T5, Heat shock factor protein 1 (Mus musculus, UniProt P38532); assay: enhancement of HSF1-driven luciferase signal – cell-based, NIH3T3, luminescence, dose retest, confirmation (AID 435004); assay type: functional;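 note: stress induced by proteasome inhibitor MG132 added 30 min after compound; luciferase reporter driven by HSF1 response element in NIH3T3 cells; actives raise luminescence as potentiators of the MG132 stress response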
T5 sequence (P38532 whole entry): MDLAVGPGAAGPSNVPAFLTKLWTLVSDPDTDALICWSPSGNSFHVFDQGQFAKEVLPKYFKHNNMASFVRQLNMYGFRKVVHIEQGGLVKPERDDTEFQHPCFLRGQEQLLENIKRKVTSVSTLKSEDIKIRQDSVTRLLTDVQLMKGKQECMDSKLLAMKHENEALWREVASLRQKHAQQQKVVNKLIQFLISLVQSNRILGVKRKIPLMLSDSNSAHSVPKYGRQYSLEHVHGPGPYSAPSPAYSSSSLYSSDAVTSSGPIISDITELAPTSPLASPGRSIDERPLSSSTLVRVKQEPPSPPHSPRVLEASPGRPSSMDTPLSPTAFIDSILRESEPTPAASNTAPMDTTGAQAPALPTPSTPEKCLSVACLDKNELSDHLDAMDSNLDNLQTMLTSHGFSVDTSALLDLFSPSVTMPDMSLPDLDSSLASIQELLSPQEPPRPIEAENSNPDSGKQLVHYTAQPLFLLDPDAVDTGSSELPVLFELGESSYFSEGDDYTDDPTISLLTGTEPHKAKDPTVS

[10] = target: T4, Cytochrome P450 2C9; remark: listed apart in the source
[11] = tested on: A-375; assay: proliferation inhibition in MITF-low A375 cells – cell-based, cherry-pick samples, set 2, counter-screen for MITF modulator project, dose response (AID 540335); assay type: functional; settings: Homo sapiens
[12] = target: T6, Microphthalmia-associated transcription factor (Homo sapiens, UniProt O75030); assay: reducers of TRPM1 reporter luminescence, concentration series – cell-based, SK-MEL-5, cherry-picked, set 3, MITF inhibitor project, dose response (AID 493073); assay type: functional;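 note: SK-MEL-5 melanoma cells with luciferase driven by the MITF target TRPM1 promoter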
T6 sequence (O75030 whole entry): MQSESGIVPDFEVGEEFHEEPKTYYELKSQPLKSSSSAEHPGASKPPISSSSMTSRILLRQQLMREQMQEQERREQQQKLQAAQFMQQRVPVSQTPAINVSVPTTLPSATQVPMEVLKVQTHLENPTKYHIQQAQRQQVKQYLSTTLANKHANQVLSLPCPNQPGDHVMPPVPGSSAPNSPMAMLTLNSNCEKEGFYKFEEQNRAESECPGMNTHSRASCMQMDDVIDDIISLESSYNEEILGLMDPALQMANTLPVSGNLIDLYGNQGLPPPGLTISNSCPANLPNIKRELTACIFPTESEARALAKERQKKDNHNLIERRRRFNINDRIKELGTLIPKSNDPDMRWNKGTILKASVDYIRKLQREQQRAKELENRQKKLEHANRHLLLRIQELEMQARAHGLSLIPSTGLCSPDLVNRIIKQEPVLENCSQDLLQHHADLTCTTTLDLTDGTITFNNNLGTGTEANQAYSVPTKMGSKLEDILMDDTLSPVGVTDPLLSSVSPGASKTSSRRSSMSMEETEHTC

[13] = viability of PTEN-deleted HCT116 cells – cell-based, HCT116 PTEN knockout, dose response (AID 1047); assay type: functional;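 note: HCT116 colon tumor cells with PTEN knocked out; cells exposed to compound for 60 hours before readout; potency for loss of cell viability measured by luminescence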
[14] = viability of HCT116 lacking mutant beta-catenin – cell-based, human colon tumor, dose response (AID 1045); assay type: functional;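 note: HCT116 colon tumor cells with beta catenin knocked out; cells exposed to compound for 60 hours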
[15] = Luminescence Cell-Based Dose Retest to Confirm Inhibitors of Cancer Stem Cells. [Related pubchem assays (depositor defined):AID2717, AID2721]; assay type: functional; settings: Homo sapiens
[16] = HEK-293T viability loss after treatment – luminescence, T-cell screen hits, cytotoxicity control for TCR NF-kB inhibitor project, dose response (AID 489026); assay type: functional, cell-based;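 note: cells exposed to compound about 14 hours before the viability readout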
[17] = tested on: BJ; assay: cells; assay type: functional, cell-based; settings: Homo sapiens
[18] = DRD fibroblast viability loss – cell-based, non-viral oncogenic, luminescence, dose response (AID 1934); assay type: functional; settings: Homo sapiens
[19] = tested on: BJ; assay: BJ-TERT fibroblast viability loss – cell-based, RAS-independent, luminescence, dose response (AID 1933); assay type: functional; settings: Homo sapiens
[20] = tested on: BJ; assay: BJ-TERT-LT-ST fibroblast viability loss – cell-based, RAS-independent, luminescence, dose response (AID 1935); assay type: functional; settings: Homo sapiens;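 note: BJ fibroblasts immortalized with TERT plus LT and ST oncogenes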
[21] = target: Eukaryotic translation initiation factor 4E (Mus musculus, UniProt P63073); assay: blockers of eIF4G binding by eIF4E – biochemical, TR-FRET, dose response (AID 855); assay type: functional;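 note: potency for disrupting eIF4E binding to eIF4GI seen as loss of FRET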
Sequence of Eukaryotic translation initiation factor 4E (P63073 whole entry): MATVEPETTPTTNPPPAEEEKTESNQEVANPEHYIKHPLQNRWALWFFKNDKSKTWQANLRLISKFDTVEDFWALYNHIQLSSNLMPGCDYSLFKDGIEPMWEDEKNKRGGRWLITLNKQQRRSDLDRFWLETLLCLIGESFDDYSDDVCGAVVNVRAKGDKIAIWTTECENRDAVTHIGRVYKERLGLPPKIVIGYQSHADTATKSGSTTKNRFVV

[22] = cells; assay type: functional, cell-based
[23] = cells; assay type: functional, cell-based; remark: listed apart in the source
[24] = tested on: Escherichia coli; assay: microbe, parasite or virus in culture
[25] = target: T7, Cytochrome P450 1A2 (Homo sapiens, UniProt P05177);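 note: PubChem cytochrome P450 panel assay, CYP1A2 panel member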
T7 sequence (P05177 whole entry): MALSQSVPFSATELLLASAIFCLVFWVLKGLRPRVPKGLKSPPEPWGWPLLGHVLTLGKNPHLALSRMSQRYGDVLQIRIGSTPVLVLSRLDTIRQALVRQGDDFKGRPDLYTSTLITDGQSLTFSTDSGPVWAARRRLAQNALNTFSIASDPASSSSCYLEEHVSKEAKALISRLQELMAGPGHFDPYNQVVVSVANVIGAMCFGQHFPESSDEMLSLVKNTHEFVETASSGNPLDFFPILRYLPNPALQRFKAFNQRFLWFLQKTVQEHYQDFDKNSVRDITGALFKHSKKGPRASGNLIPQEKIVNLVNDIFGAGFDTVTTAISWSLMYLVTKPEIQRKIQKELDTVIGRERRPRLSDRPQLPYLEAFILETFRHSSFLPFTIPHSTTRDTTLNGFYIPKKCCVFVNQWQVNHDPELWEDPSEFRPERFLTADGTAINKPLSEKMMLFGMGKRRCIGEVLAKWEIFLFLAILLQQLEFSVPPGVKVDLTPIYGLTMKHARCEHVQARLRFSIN

[26] = target: Cytochrome P450 2C19 (Homo sapiens, UniProt P33261); assay: Cytochrome panel assay with activity outcomes. Panel member name: p450-cyp2c19 Compounds with AC50 equal or less than 10 uM are considered active; assay type: functional; settings: read-out: AC50
Sequence of Cytochrome P450 2C19 (P33261 whole entry): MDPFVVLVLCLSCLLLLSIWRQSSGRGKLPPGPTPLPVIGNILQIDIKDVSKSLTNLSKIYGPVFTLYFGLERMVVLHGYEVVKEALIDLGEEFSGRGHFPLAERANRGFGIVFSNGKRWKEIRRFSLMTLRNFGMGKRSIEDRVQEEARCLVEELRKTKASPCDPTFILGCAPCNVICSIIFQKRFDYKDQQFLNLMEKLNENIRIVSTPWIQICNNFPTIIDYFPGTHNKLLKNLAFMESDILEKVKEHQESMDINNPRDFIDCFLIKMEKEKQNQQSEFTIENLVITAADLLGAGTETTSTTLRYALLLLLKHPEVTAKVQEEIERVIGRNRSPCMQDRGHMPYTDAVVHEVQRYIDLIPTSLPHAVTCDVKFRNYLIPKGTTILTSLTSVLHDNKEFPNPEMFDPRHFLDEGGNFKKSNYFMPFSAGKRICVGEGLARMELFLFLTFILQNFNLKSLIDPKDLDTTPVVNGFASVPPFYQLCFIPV

[27] = A Cell Based Secondary Assay To Explore Cytotoxicity of Compounds that Sensitize Mycobacterium Tuberculosis to Beta-Lactam Antibiotics.; assay type: functional

c1ccc(Nc2nc(NCc3ccco3)c3ccccc3n2)cc1
IC50 [1]: > 20 µM (inactive)
IC50 [2]: 1.22 µM (active)
AC50 [3]: 5.14 µM (active)
AC50 [4]: 3.66 µM (active)
EC50 [5]: 12 µM (active)
IC50 [6]: 1.08 µM (active)

O=c1[nH]c(=O)n(Cc2ccco2)c2c1C(C(F)(F)F)(C(F)(F)F)NC(CCC1CCCCC1)=N2
AC50 [7]: 2.82 µM (inconclusive)
AC50 [8]: inconclusive

Cc1nc2ccccc2n1CC(O)COCC1CC=CCC1 (configuration not stated)
IC50 [2]: 2.27 µM (active)
IC50 [6]: 1.67 µM (active)
EC50 [9]: > 260 µM (inactive)

C=CCNc1sc(C(=O)c2ccccc2)c(N)c1C#N
AC50 [10]: inconclusive
AC50 [8]: inconclusive

CN(C)CCNC(=O)/C(=C/c1ccc(-c2ccc(Cl)cc2Cl)o1)NC(=O)c1ccccc1
AC50 [11]: 18.9 µM (active)
AC50 [3]: 7.89 µM (active)
AC50 [12]: 4.97 µM (active)
EC50 [13]: 5.71 µM (active)
EC50 [14]: 4.99 µM (active)
AC50 [15]: 6.63 µM (active)

O=C(Nc1ccc(CSc2ccccc2)cc1)c1ccc(CN2CCOCC2)cc1
IC50 [16]: > 80 µM (inactive)

CCN(CC(=O)Nc1ccccc1-c1ccccc1)Cc1nc(O)c2ccccc2n1
EC50 [17]: 67.2 µM (active)
EC50 [18]: 17.9 µM (active)
EC50 [19]: 20.1 µM (active)
EC50 [20]: > 75 µM (not active)

Cc1nc(N2CCCCC2)sc1C(=O)c1cccc([N+](=O)[O-])c1
EC50 [17]: > 150 µM (not active)
EC50 [18]: > 150 µM (not active)
EC50 [19]: > 150 µM (not active)
EC50 [20]: > 150 µM (not active)

COc1ccc(-c2noc(CSc3nc(N)c(-c4ccccc4)c(=O)[nH]3)n2)cc1OC
IC50 [21]: > 64 µM (inactive)

O=S(=O)(/C=C/c1ccccc1)N1CCNCC1
EC50 [22]: > 350 µM (not active)
EC50 [23]: > 350 µM (not active)

CCC(CC)C(=O)Nc1nnc(S(=O)(=O)N2CCCCCC2)s1
AC50 [24]: 29.7 µM (active)

COc1ccc(C(CC(=O)NCc2ccccc2)Sc2n[nH]c(-c3ccccc3)n2)cc1 (configuration not stated)
EC50 [22]: > 350 µM (not active)
EC50 [23]: > 350 µM (not active)

COC(=O)C1=C(C)N(Cc2ccccc2)C(NCc2ccccc2)=N[C@H]1c1ccccc1
AC50 [11]: 23.7 µM (active)
AC50 [12]: 18 µM (active)

Cc1ccc(Nc2nc(Oc3ccc(=O)[nH]n3)nc(N(C)C)n2)cc1
IC50 [21]: > 64 µM (inactive)

CC1(C2CC2)NC(=O)NC1=O (configuration not stated)
IC50 [21]: > 64 µM (inactive)

COc1ccc(Oc2nc(C)cc(C)c2S(C)(=O)=O)cc1
AC50 [7]: 15.8 µM (inconclusive)
AC50 [8]: inconclusive
AC50 [25]: 11.2 µM (inconclusive)
AC50 [26]: 25.1 µM (inconclusive)

CCC(CC)c1nnc(NC(=O)COc2ccc3c(C)cc(=O)oc3c2)s1
AC50 [7]: 7.08 µM (inconclusive)
AC50 [8]: inconclusive

O=C(Cc1cccc2ccccc12)N/N=C/c1ccc(OC(=O)/C=C/c2ccco2)cc1
CC50 [27]: 31.2 µM (active)

C/C(=N\O)C(=O)Nc1ccccc1
EC50 [22]: > 350 µM (not active)
EC50 [23]: > 350 µM (not active)
